Test system: 292921-168-R-J2-PDC complex spheroid growth
Assay: Anticancer human tumor 292921-168-R-J2-PDC patient-derived pancreatic carcinoma cell line growth inhibition [AhR]
Conditions: for IC50: curve of first compound; for viability, T/C: stronger effect = lower value
Outline: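 Agents were dosed in half-log steps down from roughly clinical Cmax, or from 10 microM where Cmax was unknown, alone and with AhR antagonists. Read-out: percent test/control growth of tumor spheroids containing HUVEC and MSC stromal cells.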
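Note: spheroids exposed to compounds for seven days after three days of growth.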

CC(C)c1c(-c2ccccc2)nc2c(C#N)c[nH]n2c1=O + Cc1cncc(-c2nc(NCCc3c[nH]c4ccccc34)c3ncn(C(C)C)c3n2)c1 was tested, and the IC50 (second compound 0.1 µM) was greater than 10 µM, the IC50 (second compound 0.316 µM) was greater than 10 µM and the IC50 (second compound 1 µM) was greater than 10 µM. The IC50 (second compound 3.16 µM) was greater than 10 µM, the IC50 (second compound 10 µM) was 0.386 µM and the viability, T/C (second compound 0.1 µM, first compound 0.0316 µM) was 103%. The viability, T/C (second compound 0.1 µM, first compound 0.1 µM) was 95.1%, the viability, T/C (second compound 0.1 µM, first compound 0.316 µM) was 89.7% and the viability, T/C (second compound 0.1 µM, first compound 1 µM) was 98.8%. For the same compound, the viability, T/C (second compound 0.1 µM, first compound 3.16 µM) was 97.4%, the viability, T/C (second compound 0.1 µM, first compound 10 µM) was 97.2% and the viability, T/C (second compound 0.316 µM, first compound 0.0316 µM) was 98.7%. The viability, T/C (second compound 0.316 µM, first compound 0.1 µM) was 98.8%, the viability, T/C (second compound 0.316 µM, first compound 0.316 µM) was 95.8% and the viability, T/C (second compound 0.316 µM, first compound 1 µM) was 99.8%. The viability, T/C (second compound 0.316 µM, first compound 3.16 µM) was 100%, the viability, T/C (second compound 0.316 µM, first compound 10 µM) was 92.7% and the viability, T/C (second compound 1 µM, first compound 0.0316 µM) was 91.2%. It also gave a viability, T/C (second compound 1 µM, first compound 0.1 µM) of 85.6%, a viability, T/C (second compound 1 µM, first compound 0.316 µM) of 88.9% and a viability, T/C (second compound 1 µM, first compound 1 µM) of 83.5%. For the same compound, the viability, T/C (second compound 1 µM, first compound 3.16 µM) was 75.4%, the viability, T/C (second compound 1 µM, first compound 10 µM) was 78.1% and the viability, T/C (second compound 3.16 µM, first compound 0.0316 µM) was 76.4%. For the same compound, the viability, T/C (second compound 3.16 µM, first compound 0.1 µM) was 76.3%, the viability, T/C (second compound 3.16 µM, first compound 0.316 µM) was 79% and the viability, T/C (second compound 3.16 µM, first compound 1 µM) was 67.1%. It also gave a viability, T/C (second compound 3.16 µM, first compound 3.16 µM) of 65.3%, a viability, T/C (second compound 3.16 µM, first compound 10 µM) of 62% and a viability, T/C (second compound 10 µM, first compound 0.0316 µM) of 51%. The viability, T/C (second compound 10 µM, first compound 0.1 µM) was 50.1%, the viability, T/C (second compound 10 µM, first compound 0.316 µM) was 56.2% and the viability, T/C (second compound 10 µM, first compound 1 µM) was 46.1%. The viability, T/C (second compound 10 µM, first compound 3.16 µM) was 43.9% and the viability, T/C (second compound 10 µM, first compound 10 µM) was 42.6%.

From PubChem BioAssay AID1918994 (Molecular Pharmacology Branch, DTP, NCI, 2023)
